According to patent US20060058320A1, “[1,2,4] Triazolo[1,5-c]pyrimidine derivatives” (KYOWA HAKKO KOGYO CO., LTD., priority 2002, published 2006):
Read-outs that look alike come from different tables or passages of the source.

Experiments:
male SD rats = test: Learned helplessness (LH) model; type: in vivo; conditions: for escape response: IES-loaded rats, 2 mg/kg orally 1 hour before FR1; for intertrial responses (index of psychomotor stimulant action): versus electric shock loaded control group, 2 mg/kg orally
Method: As test animals, 10 to 15 male SD rats (220 to 320 g in body weight, 7 week age, Charles River Japan, Inc., Atsugi) per group were used. During the preliminary feeding period, the animals were bred to be allowed to freely have feed (CRF-1; Oriental Yeast Co., Ltd, Tokyo) and water (tap water) in an animal room at a room temperature of 22 to 24° C. and a humidity of 50 to 60%. Each test compound was orally administered in a dose of 2 mg/kg 1 hour before RF1 (refer to the contents described below) on the second day of the test.
A shuttle box apparatus (TK-401S; produced by UNICOM, Chiba) was used as a learning experimental apparatus. On the first day, the shuttle box was divided into two rooms by setting a partition at its center, and one rat was put in each of the rooms. […] Although each rat was put in the shuttle box for 50 minutes, the charging time of inescapable shock (IES) was set to 25 minutes by computer control using a random duration time (10 to 90 seconds) and random on-off and off-on (10 to 90 seconds).
On the second day, a shuttle box test was carried out by the method of Maier [J. Comp. Physiol. Psychol., vol. 85, pp. 581-592 (1973)] and the method of Geoffroy and Christensen [Drug Dev. Res., vol. 29, pp. 48-55 (1993)] which were slightly modified. The partition at the center of the shuttle box was removed, and the box was divided into two rooms by a hurdle of 2 cm in height instead of the partition. In the shuttle box test, FRI (an electric shock of 0.6 mA was applied to the rat for 5 seconds unless the rat moved to the other room within 5 seconds after the start of buzzer sounds, and when the rat moved to the other room within 5 seconds after the start of buzzer sounds, the floor shock could be avoided, this operation being carried as one trial and repeated 15 times with an interval of 10 seconds between trials.) was carried out, continuously followed by FR2 (an electric shock of 0.6 mA was applied to the rat for 10 seconds, and then an electric shock of 0.6 mA was applied at intervals of 0.5 second for 10 seconds, this operation being carried out as one trial and repeated 15 times with an interval of 15 seconds between trials). Escape reaction was determined by the escape response calculated by the equation below on the assumption that cases showing two escape latency times of less than 10 seconds in FR2 were regarded as successful escape. Escape response (%)=(Number of trials of successful escape/15)×100
Furthermore, migration (intertrial response %) in the box other than the escape reaction observed during a period between trials (resting time) was used as an index of psychomotor stimulant action, the intertrial response being calculated by the following equation. […]

[1] = tested on: CGS 21680-induced catalepsy; test: Activity on CGS 21680-induced catalepsy; type: in vivo, mice; conditions: for inhibition in vivo at 10 mg/kg: Mus musculus, po, read-out: Remission ratio (%); for Total score: total catalepsy score of 10 mice (maximum 50 points; 40 points or less = positive), one hour after administration
How it was run: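 Male ddY mice, 5 weeks old, ten per group, were dosed orally with compound at 10 mg/kg in 0.3% Tween 80 water, 30 min before CGS 21680 (10 μg/20 μL) was injected into the cerebral ventricle. Catalepsy was scored 1 h after compound dosing by placing forelimbs or hindlimbs on a 4.5 cm stand.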

male ddY mice = test: Forced swimming method (measurement of immobility time); type: in vivo; conditions: orally administered, 10 mg/kg, one hour before the test; versus solvent group (Steel-test)
Method: Ten male ddY mice (21 to 26 g in body weight, Japan SLC) per group were used as test animals. During the preliminary feeding period, the animals were bred to be allowed to freely have feed (CRF-1; Oriental Yeast Co., Ltd, Tokyo) and water (tap water) in an animal room at a room temperature for 23±1° C. and a humidity of 55±5%.
Animals showing abnormal reactions in terms of spontaneous activity, myotonia, eyesight and the like were previously excluded. Each test compound was suspended in a 0.3% Tween 80 solution and orally administered one hour before the test. In the negative control group, 10 mL/kg of a 0.3% Tween 80 solution alone was orally administered. The immobility time was measured according to the Porsolt method [Arch. Int. Pharmacodyn., vol. 229, pp. 327-336 (1977)]. Namely, a cylindrical transparent acrylic water tank (10 cm in diameter and 25 cm in height) was filled with water at a temperature between 23±1° C. to a height of 9 cm, and the mice were forced to swim for 6 minutes. When the mice are put into water, they immediately start to swim trying to escape from the tank, but the motion gradually decreases 1 to 2 minutes thereafter. […] In order to reduce the effects of daily rhythm, the test was carried out using 5 of the 10 animals per group in the morning, and the remaining 5 animals in the afternoon. The immobility time was measured by observing 2 animals at the same time without telling the observers distinctions about the control group administered with the solvent alone and doses of the test compounds. Statistical analysis of the results was carried out by a multiple comparison Steel-test between the solvent-administered group and the test compound-administered group.

adenosine A2A receptor = target: T1, adenosine A2A receptor (Rattus norvegicus, UniProt P30543); test: Adenosine A2A receptor binding test (3H-CGS 21680 binding); conditions: read-out: A2A Receptor inhibition rate (%) at 10^−7 mol/L
T1 construct: from tissue; host or cells: rat corpus striatum membrane preparation

[2] = tested on: common marmoset treated with 1-methyl-4-phenyl-1,2,3,6-tetrahydropyridine (MPTP); test: Parkinson's disease model, MPTP-treated common marmoset; type: in vivo; conditions: symptom score and spontaneous locomotor activity versus solvent-administered group
Method: Parkinson's disease is a disease based on the degeneration and cell death of the nigrostriatal dopaminergic neurons. […] These MPTP-treated primates are known as a model of Parkinson's disease [Proceedings of the National Academy of Science USA, vol. 80, p. 4546 (1983)]. […] 57, p. 37 (1985)].
The test was carried out using 4 female and male common marmosets of 2 to 3 year age (300 to 375 g in body weight, Japan CLEA) per group. MPTP (produced by RBI Co.) was dissolved in physiological saline for injection (produced by Otsuka Pharmaceutical Co., Ltd.), and hypodermically administered to the common marmosets once a day for 5 days in a dose of 2.0 mg/kg. Six weeks or more after the administration, animals showing chronic symptoms of Parkinson's disease were used in the test. Each test compound was used by suspending it in an aqueous solution containing 0.3% Tween 80 and 10% sucrose. Also, a solution containing no test compound was used as a control. One hour before the administration of the test compound, the animals to be tested were put into an observation cage (provided with a spontaneous locomotor activity measuring apparatus) to adapt them to the environment. The symptoms of Parkinson's disease were observed from a one-way see through window at intervals of 30 minutes for 8 hours to score the motor disability. The spontaneous locomotor activity was measured at intervals of 30 minutes for 12 hours by a computer-controlled automatic measuring apparatus. The symptoms of Parkinson's disease were decided on the basis of the criteria of each observation item shown below, and the total of the points was used as the score of each animal.
The effect was decided by comparing average scores of the symptoms of Parkinson's disease in 4 animals per group between the test compound-administered group and the solvent-administered group (significance test: Sign-Wilcoxon test). The spontaneous locomotor activity was also decided by comparison between the test compound-administered group and the solvent-administered group.

[3] = from total score of test group and control group, 10 mg/kg orally
[4] = test compound 10^−7 mol/L, 3H-CGS 21680 binding, rat corpus striatum

T1 sequence (P30543 whole entry): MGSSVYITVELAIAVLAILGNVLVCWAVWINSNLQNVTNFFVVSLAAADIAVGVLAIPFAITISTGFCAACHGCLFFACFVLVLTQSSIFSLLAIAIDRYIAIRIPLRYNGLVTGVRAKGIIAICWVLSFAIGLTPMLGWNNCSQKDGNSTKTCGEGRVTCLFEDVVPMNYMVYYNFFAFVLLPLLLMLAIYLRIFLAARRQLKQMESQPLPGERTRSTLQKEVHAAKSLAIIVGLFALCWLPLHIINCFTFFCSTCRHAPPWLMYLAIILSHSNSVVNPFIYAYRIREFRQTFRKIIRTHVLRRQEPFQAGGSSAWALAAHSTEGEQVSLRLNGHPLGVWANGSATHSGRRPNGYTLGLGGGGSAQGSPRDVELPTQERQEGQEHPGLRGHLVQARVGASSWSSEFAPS

| Structure (SMILES) | escape response (male SD rats) | intertrial responses (index of psychomotor stimulant action) (male SD rats) | inhibition in vivo at 10 mg/kg [1, 3] | Total score ([1]; 10 mg/kg orally) | immobility time (male ddY mice) | inhibition at 0.1 µM (adenosine A2A receptor; [4]) | effect in the common marmoset MPTP-treated Parkinson's disease model [2] | inhibition in vivo at 10 mg/kg [1] | inhibition at 0.1 µM (adenosine A2A receptor) |
| --- | --- | --- | --- | --- | --- | --- | --- | --- | --- |
| Nc1nc(C(=O)NCc2cccnc2)cc2nc(-c3ccco3)nn12 [Compound 83, 5-Amino-2-(2-furyl) [1,2,4]triazolo[1,5-c]pyrimidine-7-carboxylic acid (3-pyridylmethyl)amide] | significantly recover a reduced escape response | no difference | 96% | 2 | significant effect of decreasing the immobility time | – | – | – | – |
| Nc1nc(C2CCN(CC3CC3)CC2)cc2nc(-c3ccco3)nn12 [Compound 71, 5-Amino-7-[1-(cyclopropylmethyl)piperidin-4-yl]-2-(2-furyl)-[1,2,4]triazolo[1,5-c]pyrimidine] | significantly recover a reduced escape response | no difference | – | – | significant effect of decreasing the immobility time | 87% | effective | – | – |
| CC(C)(O)CCN1CC=C(c2cc3nc(-c4ccco4)nn3c(N)n2)CC1 [Compound 76, 5-Amino-7-[1-(3-methyl-3-hydroxybutyl)-1,2,3,6-tetrahydro-pyridin-4-yl]-2-(2-furyl)[1,2,4]triazolo[1,5-c]pyrimidine] | – | – | – | 5 | – | – | effective | 80% | 72% |
| CN(CCc1ccccn1)C(=O)c1cc2nc(-c3ccco3)nn2c(N)n1 [Compound 85, 5-Amino-2-(2-furyl)[1,2,4]triazolo[1,5-c]pyrimidine-7-carboxylic acid {N-[2-(2-pyridyl)ethyl]-N-methyl}amide] | – | – | 94% | 3 | – | 70% | effective | – | – |
